Our source for the IC50 values is US7582646B2, “Pyrimidine derivatives for treatment of hyperproliferative disorders” (Bayer Pharmaceuticals Corporation, priority 2003, dated 2009).

Structures are written as SMILES. pIC50: −log10 of the molar value. Structures can show the parent of a compound that is named as a salt. Where two headings read alike, the source gives them in different places. A value given as a limit tells only on which side of the number the result lay.

The test system of data set [1] is HCT116 cells. The data set is described as follows: HCT116 cytotoxic activity assay (Alamar Blue, 72 h). Conditions: Homo sapiens, HCT-116, read-out: IC50 in the HCT116 cytotoxic activity assay.
Description: (§1) Human tumor cells, e.g., HCT116 cells, are seeded in a 96-well plate at 3.0×10^3 cells/well and grown in 100 μl of RPMI complete media (Invitrogen Corporation, Grand Island, N.Y.) containing 10% fetal bovine serum (Hyclone, Logan, Utah) and 10 mM HEPES and at 37° C. for 16 h in an incubator with 5% CO2. To each well, 50 μl of additional growth media containing 20 μM to 60 nM concentrations of compound with 0.2% DMSO is added. Cells are grown for another 72 h at 37° C. 20 μl of Alamar Blue (Trek Diagnostic Systems, Inc., Cleveland, Ohio) reagent is added to each well and incubated for 4 h at 37° C. Plates are read in a SpectraMax Gemini (Molecular Devices, CA) with 544 nm excitation and 590 nm emission wavelength. IC50 values are determined by linear regression analysis of log drug concentration versus percent inhibition.
The test system of data set [2] is HCT116 cells.
Description: as §1

The term pIC50 denotes the negative decadic logarithm of the IC50, by convention in mol/L. For the compound `NCc1cc(Oc2ccc(Nc3cc(-c4ccccc4)nc(N)n3)cc2)ccn1` [Example 39, N^4-(4-{[2-(aminomethyl)pyridin-4-yl]oxy}phenyl)-6-phenylpyrimidine-2,4-diamine], in the data set on HCT116 cells [1], the pIC50 is not below 6.30.

Regarding `COC[C@@H]1CCCN1C(=O)c1cc(Oc2ccc(Nc3cc(-c4ccccc4)nc(N)n3)cc2)ccn1` [Example 81, N4*-{4-[(2-{[(2S)-2-(methoxymethylpyrrolidin-1-yl]carbonyl}pyridin-4-yl)oxy]phenyl}-6-phenylpyrimidine-2,4-diamine trifluoroacetate], in the data set on HCT116 cells [1], the pIC50 is less than 5.70.

Consider `Nc1nc(Nc2ccc(Oc3ccnc(C(=O)N4CC[C@@H](O)C4)c3)cc2)cc(-c2ccccc2)n1` [Example 82, (3R)-1-[(4-{4-[(2-amino-6-phenylpyrimidin-4-yl)amino]phenoxy}pyridin-2-yl)carbonyl] pyrrolidin-3-ol trifluoroacetate (salt)], for which the pIC50 with HCT116 cells [1] is 5.70 to 6.30.

With `Cn1cnc(S(=O)(=O)NCc2cc(Oc3ccc(Nc4cc(-c5ccccc5)nc(N)n4)cc3)ccn2)c1` [Example 93, N-[(4-{4-[(2-amino-6-phenylpyrimidin-4-yl)amino]phenoxy}pyridin-2-yl)methyl]-1-methyl-1H-imidazole-4-sulfonamide trifluoroacetate], the pIC50 in the data set with HCT116 cells [1] is less than 5.70.

`CCS(=O)(=O)NCc1cc(Oc2ccc(Nc3cc(-c4ccccc4)nc(N)n3)cc2)ccn1` [Example 94, N-[(4-{4-[(2-amino-6-phenylpyrimidin-4-yl)amino]phenoxy}pyridin-2-yl)methyl]ethanesulfonamide trifluoroacetate]: in the data set with HCT116 cells [1], the pIC50 is not below 6.30.

Regarding `CC(C)S(=O)(=O)NCc1cc(Oc2ccc(Nc3cc(-c4ccccc4)nc(N)n3)cc2)ccn1` [Example 95, N-[(4-{4-[(2-amino-6-phenylpyrimidin-4-yl)amino]phenoxy}pyridin-2-yl)methyl]propane-2-sulfonamide trifluoroacetate], in the data set on HCT116 cells [1], the pIC50 is not below 6.30.

For the compound `Nc1nc(Nc2ccc(Oc3ccnc(CNS(=O)(=O)c4ccccc4)c3)cc2)cc(-c2ccccc2)n1` [Example 96, N-[(4-{4-[(2-amino-6-phenylpyrimidin-4-yl)amino]phenoxy}pyridin-2-yl)methyl]benzenesulfonamide trifluoroacetate], the pIC50 in the data set with HCT116 cells [1] is not below 6.30.

For `COc1ccc(S(=O)(=O)NCc2cc(Oc3ccc(Nc4cc(-c5ccccc5)nc(N)n4)cc3)ccn2)cc1` [Example 97, N-[(4-{4-[(2-amino-6-phenylpyrimidin-4-yl)amino]phenoxy}pyridin-2-yl)methyl]-4-methoxybenzenesulfonamide trifluoroacetate], in the data set on HCT116 cells [1], the pIC50 was not below 6.30.

With `Nc1nc(Nc2ccc(Oc3ccnc(CNS(=O)(=O)c4ccc(F)cc4)c3)cc2)cc(-c2ccccc2)n1` [Example 98, N-[(4-{4-[(2-amino-6-phenylpyrimidin-4-yl)amino]phenoxy}pyridin-2-yl)methyl]-4-fluorobenzenesulfonamide trifluoroacetate], the pIC50 in the data set with HCT116 cells [1] was not below 6.30.

For the compound `NC(=O)NCc1cc(Oc2ccc(Nc3cc(-c4ccccc4)nc(N)n3)cc2)ccn1` [Example 101, N-[(4-{4-[(2-amino-6-phenylpyrimidin-4-yl)amino]phenoxy}pyridin-2-yl)methyl]urea trifluoroacetate], in the data set with HCT116 cells [1], the pIC50 was 5.70 to 6.30.

On to `Nc1nc(Nc2ccc(Oc3ccnc(NCc4ccccc4)c3)cc2)cc(-c2ccccc2)n1` [Example 132, N4*-(4-{[2-(benzylamino)pyridin-4-yl]oxy}phenyl)-6-phenyl-pyrimidine-2,4-diamine trifluoroacetate], for which the pIC50 with HCT116 cells [1] is 5.70 to 6.30.

As to `NCC(=O)Nc1ccc(-c2cc(Nc3ccc(Oc4ccnc(C(F)(F)F)c4)cc3)nc(N)n2)cc1` [Example 151, N-(4-{2-amino-6-[(4-{[2-(trifluoromethyl)pyridin-4-yl]oxy}phe-nyl)amino]pyrimidin-4-yl}phenyl)glycinamide trifluoroacetate], the pIC50 in the data set on HCT116 cells [1] is not below 6.30.

Take `NCCCC(=O)Nc1ccc(-c2cc(Nc3ccc(Oc4ccnc(C(F)(F)F)c4)cc3)nc(N)n2)cc1` [Example 152, 4-amino-N-(4-{2-amino-6-[(4-{[2-(trifluoromethyl)pyridin-4-yl]oxy}phe-nyl)amino]pyrimidin-4-yl}phenyl)butanamide trifluoroacetate]: the pIC50 in the data set with HCT116 cells [1] is 5.70 to 6.30.

Take `COc1cc(-c2cc(Nc3ccc(Oc4ccnc(C#N)c4)cc3)nc(N)n2)ccc1N` [Example 179, 4-(4-{[2-amino-6-(4-amino-3-methoxyphenyl)pyrimidin-4-yl]a-mino}phenoxy)pyridine-2-carbonitrile trifluoroacetate]: the pIC50 in the data set with HCT116 cells [1] was not below 6.30.

`N#CCc1ccc(-c2cc(Nc3cccc(Oc4ccnc(C(N)=O)c4)c3)nc(N)n2)cc1` [Example 294, 4-[3-({2-amino-6-[4-(cyanomethyl)phenyl]pyrimidin-4-yl}amino)phenoxy] pyridine-2-carboxamide] gave a pIC50 in the data set with HCT116 cells [2] of 5.70 to 6.30.
